Reference: US9422338B2 (EpoDose LLC, priority 2011, dated 2016)
pIC50, pKi: −log10 of the molar value. Where a SMILES comes first, the peptide text is derived from it. Bridges are numbered along the chain shown (N, C = ends). Roman numbers before positions name the chains, in order. [ ]: non-standard residue; d: D form. ξ: configuration not given here. 1Nal = N[C@@H](Cc1cccc2ccccc12)C(=O)O; ξK = NCCCCC(N)C(=O)O; Ava = NCCCCC(=O)O

Biological target: T1, EPOR (erythropoietin receptor), human recombinant, NSO cells (Homo sapiens, UniProt P19235)
T1 construct: host or cells: NSO cells
T1 sequence (P19235 25-250 limits assumed): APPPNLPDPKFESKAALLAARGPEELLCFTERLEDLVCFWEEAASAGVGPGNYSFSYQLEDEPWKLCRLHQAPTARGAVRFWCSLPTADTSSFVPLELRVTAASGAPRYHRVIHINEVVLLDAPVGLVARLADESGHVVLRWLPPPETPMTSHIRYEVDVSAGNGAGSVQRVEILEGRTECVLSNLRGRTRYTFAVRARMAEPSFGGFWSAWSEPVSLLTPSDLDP
Assay: EPOR radioligand binding assay ([125I] Erythropoietin competition)
Conditions: for Ki (AC-0005-002)/Ki: Ki relative to that of AC-0005-002
Method: IC50 values were determined by a non-linear, least squares regression analysis using MATHIQ™ (computer software for integrating mathematical functions into new or existing software). […] Where presented, the Hill coefficient (nH), defining the slope of the competitive binding curve, was calculated using MATHIQ™.

CC[C@H](C)[C@@H]1NC(=O)[C@@H]2CCCN2C(=O)CNC(=O)[C@H](CCSC)NC(=O)[C@H](Cc2c[nH]cn2)NC(=O)[C@@H](NC(=O)[C@H](C)NC(=O)[C@H](Cc2ccc(O)cc2)NC(=O)[C@H](CC(C)C)NC(C)=O)CSSC[C@@H](C(=O)NCCCCC(=O)NCCCCC(NC(=O)[C@@H]2CSSC[C@H](NC(=O)[C@H](C)NC(=O)[C@H](Cc3ccc(O)cc3)NC(=O)[C@H](CC(C)C)NC(C)=O)C(=O)N[C@@H](Cc3c[nH]cn3)C(=O)N[C@@H](CCSC)C(=O)NCC(=O)N3CCC[C@H]3C(=O)N[C@@H]([C@@H](C)CC)C(=O)N[C@@H]([C@@H](C)O)C(=O)N[C@@H](Cc3cccc4ccccc34)C(=O)N[C@@H](C(C)C)C(=O)N2)C(N)=O)NC(=O)[C@H](C(C)C)NC(=O)[C@H](Cc2cccc3ccccc23)NC(=O)[C@H]([C@@H](C)O)NC1=O (stereo partly drawn) [AC-0005-006] (I: Ac-LYACHMGPIT[1Nal]VC[ξK]-NH2 / II: Ac-LYACHMGPIT[1Nal]VC[Ava]; disulfide I:4-I:13, II:4-II:13; amide I:14-II:C)
pIC50 (Example 4, first table): < 5.00

I: Ac-GGLYACHMGPIT[1Nal]VCQPQGG[ξK]-NH2 / II: Ac-GGNYLCHMGPIT[1Nal]VCQPQGG[Ava] (disulfide I:6-I:15, II:6-II:15; amide I:21-II:C) [AC-0005-002]
Ki (AC-0005-002)/Ki (Example 4, first table): 1

CSCC[C@@H]1NC(=O)[C@H](CCCNC(=N)N)NC(=O)C(NC(=O)[C@H](CC(C)C)NC(=O)[C@H](Cc2ccc(O)cc2)NC(=O)[C@H](CC(N)=O)NC(C)=O)CCOCC(C(=O)N[C@@H](CCCCN)C(=O)N2CCC[C@H]2C(=O)NC(CCCCNC(=O)CCCC(NC(=O)[C@@H]2CCCN2C(=O)[C@H](CCCCN)NC(=O)C2COCCC(NC(=O)[C@H](CC(C)C)NC(=O)[C@H](Cc3ccc(O)cc3)NC(=O)[C@H](CC(N)=O)NC(C)=O)C(=O)N[C@@H](CCCNC(=N)N)C(=O)N[C@@H](CCSC)C(=O)N3CCC[C@H]3C(=O)N[C@@H](Cc3ccc4ccccc4c3)C(=O)N[C@@H](C(C)C)C(=O)N2)C(=O)NCCC(=O)N[C@@H](CCCNC(=N)N)C(N)=O)C(=O)NCCC(=O)N[C@@H](CCCNC(=N)N)C(N)=O)NC(=O)[C@H](C(C)C)NC(=O)[C@H](Cc2ccc3ccccc3c2)NC(=O)[C@@H]2CCCN2C1=O (stereo partly drawn) [AC-0005-062]
pKi (Example 2, mimetics varied in loop, mid and C-end): 8.92
pIC50 (Example 4, sixth table): 8.62

CC[C@H](C)[C@@H]1NC(=O)[C@@H]2CCCN2C(=O)CNC(=O)[C@H](CCSC)NC(=O)[C@H](Cc2c[nH]cn2)NC(=O)[C@@H](NC(=O)[C@H](C)NC(=O)[C@H](Cc2ccc(O)cc2)NC(=O)[C@H](CC(C)C)NC(C)=O)CSSC[C@@H](C(=O)N[C@@H](CCC(N)=O)C(=O)NCCCCC(=O)NCCCCC(NC(=O)[C@H](CCC(N)=O)NC(=O)[C@@H]2CSSC[C@H](NC(=O)[C@H](C)NC(=O)[C@H](Cc3ccc(O)cc3)NC(=O)[C@H](CC(C)C)NC(C)=O)C(=O)N[C@@H](Cc3c[nH]cn3)C(=O)N[C@@H](CCSC)C(=O)NCC(=O)N3CCC[C@H]3C(=O)N[C@@H]([C@@H](C)CC)C(=O)N[C@@H]([C@@H](C)O)C(=O)N[C@@H](Cc3cccc4ccccc34)C(=O)N[C@@H](C(C)C)C(=O)N2)C(N)=O)NC(=O)[C@H](C(C)C)NC(=O)[C@H](Cc2cccc3ccccc23)NC(=O)[C@H]([C@@H](C)O)NC1=O (stereo partly drawn) [AC-0005-005] (I: Ac-LYACHMGPIT[1Nal]VCQ[ξK]-NH2 / II: Ac-LYACHMGPIT[1Nal]VCQ[Ava]; disulfide I:4-I:13, II:4-II:13; amide I:15-II:C)
pIC50 (Example 4, first table): < 5.00

CSCC[C@@H]1NC(=O)[C@H](CCCNC(=N)N)NC(=O)C(NC(=O)[C@H](CC(C)C)NCOCCCO)CCOCC(C(=O)N[C@@H](CCCCNC(=N)N)C(=O)N2CCC[C@H]2C(=O)NCCCCC(=O)NCCCCC(NC(=O)[C@@H]2CCCN2C(=O)[C@H](CCCCNC(=N)N)NC(=O)C2COCCC(NC(=O)[C@H](CC(C)C)NCOCCCO)C(=O)N[C@@H](CCCNC(=N)N)C(=O)N[C@@H](CCSC)C(=O)N3CCC[C@H]3C(=O)N[C@@H](Cc3c[nH]c4ccccc34)C(=O)N[C@@H](C(C)C)C(=O)N2)C(N)=O)NC(=O)[C@H](C(C)C)NC(=O)[C@H](Cc2c[nH]c3ccccc23)NC(=O)[C@@H]2CCCN2C1=O (stereo partly drawn) [AC-0005-053]
NH (Hill coefficient) (Example 3, slope of competitive binding curve): 1.86
Ki (AC-0005-002)/Ki (Example 4, fifth table): 403
Ki/Ki(EPO) (Example 4, fifth table, Ki relative to that of EPO): 120

CSCC[C@@H]1NC(=O)[C@H](CCCNC(=N)N)NC(=O)C(NC(=O)[C@H](CC(C)C)NC(=O)[C@H](Cc2ccc(O)cc2)NC(=O)[C@H](CC(N)=O)NC(C)=O)CCOCC(C(=O)N[C@@H](CCCCN)C(=O)N2CCC[C@H]2C(=O)NCCCCC(=O)NCCCCC(NC(=O)[C@@H]2CCCN2C(=O)[C@H](CCCCN)NC(=O)C2COCCC(NC(=O)[C@H](CC(C)C)NC(=O)[C@H](Cc3ccc(O)cc3)NC(=O)[C@H](CC(N)=O)NC(C)=O)C(=O)N[C@@H](CCCNC(=N)N)C(=O)N[C@@H](CCSC)C(=O)NCC(=O)N[C@@H](Cc3c[nH]c4ccccc34)C(=O)N[C@@H](C(C)C)C(=O)N2)C(N)=O)NC(=O)[C@H](C(C)C)NC(=O)[C@H](Cc2c[nH]c3ccccc23)NC(=O)CNC1=O (stereo partly drawn) [AC-0005-018]
pKi (Example 1, mimetics varied in N-end, loop and mid sequences): 7.66
pIC50 (Example 4, fourth table): 7.15
pKi (Example 4, fourth table): 7.48
pIC50 (Example 4, second table): 7.33
